Measurements taken from patent US20230233736A1, “ANTIMICROBIAL FORMULATIONS COMPRISING SILICONE” (AMICOAT AS, priority 2020, published 2023).

Columns and labels:
Salmonella sp = assay: MIC microbroth dilution (CLSI); assay type: cell-based
Source text: (§1) Cation-adjusted Mueller-Hinton broth (Oxoid Ltd., Basingstoke, UK and Trek Diagnostic Systems Ltd., East Grinstead, UK) (supplemented with 5% laked horse blood for Streptococcus spp., Corynebacterium jeikeium and Listeria monocytogenes) was used for aerobic bacteria, with an initial inoculum of approximately 10^5 colony-forming units (CFU)/m L.

[1] = tested on: Stenotrophomonas maltophilia; assay: MIC microbroth dilution (CLSI); assay type: cell-based; conditions: antibiotic-susceptible clinical isolate
Source text: as §1

Enterococcus gallinarum = assay: MIC microbroth dilution (CLSI); assay type: cell-based; conditions: vancomycin-resistant (VanC) clinical isolate
Source text: as §1

[2] = tested on: Staphylococcus saprophyticus; assay: MIC microbroth dilution (CLSI); assay type: cell-based; conditions: antibiotic susceptible clinical isolate
Source text: as §1

Shigella sp = assay: MIC microbroth dilution (CLSI); assay type: cell-based; conditions: antibiotic-susceptible clinical isolate
Source text: as §1

Listeria monocytogenes = assay: MIC microbroth dilution (CLSI); assay type: cell-based; conditions: antibiotic-susceptible clinical isolate
Source text: as §1

Streptococcus pyogenes = assay: Murine skin infection model, topical treatment; assay type: in vivo, mice; conditions: FIG. 2
Protocol: (§2) The skin of mice was infected with Staphylococcus aureus or Streptococcus pyogenes and subsequently given a total of three treatments at three hourly intervals. Three hours after the last treatment, skin biopsies were collected and the number of colony forming units (CFUs) present in the skin sample was determined. Results are shown in FIGS. 1 and 2, expressed as the number of colony forming units per mouse.
In experiment 2 (FIG. 2), compound 2 was applied in two different concentrations, as either a 1% or a 2% gel. A placebo gel and a known antibacterial “bactroban” were used as controls.
as §2, with “3, 4” for “1”, “5” for “2,”
In experiment 2 (FIG. 4), compound 7 was applied in two different concentrations, as either a 1% or a 2% gel. A placebo gel and a known antibacterial “bactroban (mupericin)” were used as controls.

Aspergillus niger = assay: MIC microbroth dilution (CLSI); assay type: cell-based; conditions: G.R. Micro collection
[3] = tested on: Staphylococcus aureus FDA486; assay: Murine skin infection model, topical treatment; assay type: in vivo, mice; conditions: FIG. 1; cream or gel containing 2% (w/w), three treatments at three hourly intervals, compared to placebo
Protocol: as §2
In experiment 1 (FIG. 1), compound 2 was applied to the murine skin as part of either a cream or a gel containing 2% (w/w) of compound 2. The same cream or gel without compound 2 was used as a negative control (placebo).
as §2, with “3, 4” for “1”, “5” for “2,”
In experiment 1 (FIG. 3), compound 7 was applied to the murine skin as part of either a cream or a gel containing 2% (w/w) of compound 7. The same cream or gel without compound 7 was used as a negative control (placebo). Bactroban 2% cream was used as a positive control.
In experiment 3 (FIG. 5), compound 8 was applied in a 2% cream formulation on a Staphylococcus aureus FDA 486 infection in the murine skin infection model. A placebo cream and two known antibacterials, “Fucidin (fucidic acid) ointment 2%” and “Bactroban (mupericin) cream 2%” were used as controls.

Clostridium difficile = assay: MIC microbroth dilution (CLSI); assay type: cell-based; set-up: unit not given beside the values; conditions: antibiotic-susceptible clinical isolate

CC(C)(C)c1cc(C(C)(C)C)c2[nH]c(C(C)(C)C)c(CC(NC(=O)C(N)CCCNC(=N)N)C(=O)NC(CCCNC(=N)N)C(=O)NCCc3ccccc3)c2c1 (stereo not drawn) [Compound 2]
MIC (Salmonella sp; antibiotic-susceptible clinical isolate): 8
MIC (Salmonella sp; multi-drug resistant clinical isolate): 8
MIC [1]: 8
MIC (Enterococcus gallinarum): 4
MIC [2]: 1
MIC (Shigella sp): 8
MIC (Listeria monocytogenes): 16
number of CFUs, 2% gel compared with 1% gel (Streptococcus pyogenes): more effective than the gel containing only 1% of compound 2
number of colony forming units (CFU) in skin biopsy (Streptococcus pyogenes; 1% or 2% gel, three treatments at three hourly intervals): more effective at reducing the number of CFUs than the placebo gel or the bactroban
MIC (Aspergillus niger): 8
number of colony forming units (CFU) in skin biopsy [3]: number of CFUs was reduced
MIC (Clostridium difficile): 16
